Results as given in patent US20230151021A1, “Compounds and Compositions for Treating Hematologic Malignancies” (priority 2020, published 2023).
Like-named read-outs stand apart in the source and are kept apart here.

Experiments:
[1] = tested on: HL60, K562, MOLM14 and SU-DHL-4 cell lines; assay: IC50 of Brusatol in less and more sensitive cell lines; assay type: cell-based, human; details: 72 hours
Experimental: FIGS. 5A-5F: PI3K family of proteins is crucial for Brusatol-mediated inhibitory effects. FIG. 5A: IC50 assays of Brusatol were determined in the indicated cancer cells. All of the cells were treated for 72 hours. […] NS, not significant. […] Then cells were fixed and stained with PI. Flow cytometry assays were performed to determine cell cycle progression. The subG1 population in cells was labeled as the percentage. […] FIG. 5F: The described cells were incubated with Brusatol (0, 50 nM, 100 nM) for different periods (0, 12 hours, 24 hours).

Plasma stability [2] = assay: Plasma stability
Raji cells [3] = assay: cells; assay type: cell-based, human; details: for activity on viability of Raji cells (in words): 100 nM for 72 h
AKT1, GSK3, and mTOR = assay: Western blot of PI3K/AKT regulated signaling proteins; assay type: cell-based, human; details: Raji and SU-DHL-4 cells; 0, 50 nM, 100 nM; 0, 12 hours, 24 hours
Experimental: Western blot analyses were performed as previously described. Briefly, total cell lysates were separated by SDS-PAGE gel and transferred to nitrocellulose membrane. The membranes were blocked with 5% non-fat milk, probed with specific antibodies, and visualized using the Odyssey scanner (LiCor Inc., Lincoln, Nebr.).

LCL1 cells = assay: Cell viability assay (CellTiter-Glo luminescence); assay type: cell-based; details: Homo sapiens; LCL1, 5000 cells, 72 hours; read-out: half-maximal inhibitory concentration (IC50)
[4] = Stability in simulated intestinal fluid
HL-60 cells = assay: Cell cycle assay (PI staining, flow cytometry); assay type: cell-based, human; details: HL-60, 100 nM, 48 hours
Experimental: (§1) 5 million cells were harvested, fixed with 80% ethanol for 2 hours or overnight at −20° C., then washed with PBS and incubated with Propidium iodide (PI) staining buffer (0.5 mg/ml propidium iodide in PBS with 50 μg/ml RNase A) for 30 minutes at room temperature. The stained cells were resuspended in PBS and analyzed on a FACSCalibur system (Becton Dickinson, San Jose, Calif., USA) using FlowJo software (TreeStar, San Carlos, Calif., USA).

Raji cells [5] = assay: Cell cycle assay (PI staining, flow cytometry); assay type: cell-based, human; details: 100 nM, 48 hours
Experimental: as §1

SU-DHL-4 cells [6] = assay: Cell cycle assay (PI staining, flow cytometry); assay type: cell-based, human; details: SU-DHL-4, 100 nM, 48 hours
Experimental: as §1

K562 cells = assay: Cell cycle assay (PI staining, flow cytometry); assay type: cell-based, human; details: K562, 100 nM, 48 hours
Experimental: as §1

NOD/SCID mice = assay: In vivo toxicity test; details: 24 days; for survival: 4 mice per group
Experimental: […]; 4 mice per group) were intraperitoneally injected with a maximum dose of […] of Brusatol, #15 or #26 compound every other day (three times per week). The survival rate was recorded to monitor the tolerance of the compounds in these mice.
[…]. Six-week-old male NOD.CB17PrkdcSCID/J (NOD/SCID) mice (Jackson Labs, Bar Harbor, Me., USA; 4 mice per group) were intraperitoneally injected with a dose of 5 mg/kg of one of three compounds—brusatol, 15, or 26—every other day, three times per week. The mice were monitored and euthanized after 24 days of treatment. […]. […] […].

[7] = MetID profile in mouse liver microsomes; assay type: in vitro ADME; details: 60 min of incubation
Experimental: In order to determine if 26 induces liver microsomal metabolism changes, the MetID profile of 26 in mouse liver microsomes was investigated under the same conditions as for brusatol. […] However, 87% of 26 (area %) was detected after 60 min of incubation while five identified metabolites were all in relatively small percentages.

[8] = Stability in simulated gastric fluid
SU-DHL-4 cells [9] = assay: Cell viability assay (CellTiter-Glo luminescence); assay type: cell-based; details: Homo sapiens, SU-DHL-4, 48 h, read-out: viability of cells inhibited
Plasma stability [10] = assay: Plasma stability; remark: listed apart in the source
[11] = tested on: 13 cell lines representing a range of hematologic malignancies; assay: Cell viability in panel of hematologic malignancy derived cell lines; details: 100 nM, 72 hours
Experimental: Cell viability was determined after 72 hours by detecting luminescence. ALL, acute lymphoblastic leukemia; BL, Burkitt's lymphoma; DLBCL, diffuse large B-cell lymphoma; MCL, mantle cell lymphoma; AML, acute myeloid leukemia; MM, multiple myeloma; LCLs, lymphoblastoid cell lines.
(§2) 5000 cells as indicated were cultured in 96-well plate with 100 μl of media. On the next day, Brusatol or associated analogs were added once to the cells without media change. After treatment, the cells were incubated with 100 μl buffer for 10 minutes at room temperature following the instructions of CellTiter-Glo kit (Promega, Madison, Wis.). Luminescence was detected using a multi-mode reader Cytation 5 (BioTek, Winooski, Vt.). Brusatol or its analogs are dissolved in 100% ethanol and diluted in 1×PBS for treatment. Two independent experiments done in duplicates were performed.

MOLM14 xenografts = assay: In vivo tumorigenic assay using xenografts; design: species or system NOD/SCID mice; details: 2 mg/kg intraperitoneally three times per week, two weeks
Experimental: Six-week-old male NOD.CB17-Prkdc^scid/J (NOD/SCID) mice (Jackson Labs, Bar Harbor, Me., USA) were used as the human-in-mouse xeno-transplantation model. MOLM14 cells (1×10^7 cells) were injected into the subcutaneous space on the left flank of the mice. Once xenografts reached a size of 100 mm^3, Brusatol and analogs (14, 15, 26, 31) at 2 mg/kg body weight or PBS were injected intraperitoneally three times per week. Body weight and tumor size were monitored before every injection. After treatment for two weeks, the mice were euthanized by CO2 inhalation and the tumors were carefully excised. The tumor volume (mm^3) was measured and calculated using the formula (a×b×b)/2 (a, the largest diameter of two measurements; b, the smallest diameter of two measurements).

[12] = 60 min
[13] = not given; remark: listed apart in the source
[14] = 60 min; remark: listed apart in the source
[15] = tested on: MOLT-4, SU-DHL-6, SU-DHL-10, RPMI-8226, and LCL1; assay: Cell viability in five additional cell lines; details: MOLT-4, SU-DHL-6, SU-DHL-10, RPMI-8226, LCL1
Experimental: as §2
To investigate their inhibitory activities on the growth of EBV-associated lymphomas and other types of lymphomas, conjugates were first investigated for their effects on the viability of Raji cells, a Burkitt's lymphoma (BL) cell line, when treated at 100 nM for 72 h. […] These cell lines represent the cell models of a range of hematologic malignancies.

[16] = 5 mg/kg intraperitoneally every other day
[17] = 10 mg/kg intraperitoneally every other day

## COC(=O)[C@@]12OC[C@]34C([C@@H](O)[C@@H]1O)[C@@]1(C)CC(=O)C(O)=C(C)[C@@H]1C[C@H]3OC(=O)[C@H](OC(=O)C=C(C)C)[C@@H]24 (stereo partly drawn) [Brusatol, methyl (1R,2S,3S,3aS,3a1R,4R,6aR,7aR,11aS)-1,2,9-trihydroxy-8,11a-dimethyl-4-((3-methylbut-2-enoyl)oxy)-5,10-dioxo-1,4,5,6a,7,7a,10,11,11a,11b-decahydro-2H-3,3a1-(epoxymethano)dibenzo[de,g]chromene-3(3aH)-carboxylate]
[1]
  fold more sensitive (IC50), MOLM14 and SU-DHL-4 compared to HL60 and K562: about 10 fold
Plasma stability [2]
  Plasma stability remaining % at 60 min, human: 91%
Raji cells [3]; Homo sapiens, 100 nM, 48 hours post-treatment, read-out: viability of cells inhibited
  cytotoxicity at 0.1 µM: > 80%
Raji cells [3]; Homo sapiens, 5000 cells, 72 hours, read-out: half-maximal inhibitory concentration (IC50)
  IC50: 2 to 6 nM
AKT1, GSK3, and mTOR
  protein expression of AKT1, GSK3, and mTOR (in words): significantly reduced
LCL1 cells
  IC50: 2 to 6 nM
[4]
  Stability in simulated intestinal fluid (% at 4 h): 100%
HL-60 cells
  cells in the sub-G1 phase: 7.63%
Raji cells [5]
  cells in the sub-G1 phase: 68.4%
SU-DHL-4 cells [6]
  cells in the sub-G1 phase: 67.9%
K562 cells
  cells in the sub-G1 phase: 3.19%
NOD/SCID mice; [16]
  mice survived (of four): three
  survival: 75%
[7]
  parent detected after incubation in mouse liver microsomes (area %): 40%
[8]
  Stability in simulated gastric fluid (% at 4 h): 109%
SU-DHL-4 cells [9]
  cytotoxicity at 0.1 µM: > 80%
Plasma stability [10]
  Plasma stability remaining % at 60 min, rat: 100%

## COC(=O)[C@@]12OC[C@]34C([C@@H](O)[C@@H]1O)[C@@]1(C)CC(=O)C(OC(=O)CNC(=O)OC(C)(C)C)=C(C)[C@@H]1C[C@H]3OC(=O)[C@H](OC(=O)C=C(C)C)[C@@H]24 (stereo partly drawn) [Compound 15, methyl (1R,2S,3S,3aS,3a1R,4R,6aR,7aR,11aS)-9-(((tert-butoxycarbonyl)glycyl)oxy)-1,2-dihydroxy-8,11a-dimethyl-4-((3-methylbut-2-enoyl)oxy)-5,10-dioxo-1,4,5,6a,7,7a,10,11,11a,11b-decahydro-2H-3,3a1-(epoxymethano)dibenzo[de,g]chromene-3(3aH)-carboxylate]
Raji cells [3]
  activity on viability of Raji cells (in words): moderate inhibition
[11]
  inhibition of cell viability (in words): significantly inhibit cell viability
[4]
  Stability in simulated intestinal fluid (% at 4 h): 42%
NOD/SCID mice; [16]
  mice survived (of four): two
  survival: 50%
NOD/SCID mice; [17]
  toxicity in vivo (in words): obviously lethal for the majority of mice within the first 4 days
  survival: 0%
[8]
  Stability in simulated gastric fluid (% at 4 h): 25%
MOLM14 xenografts
  tumor size response (in words): strong and rapid inhibitory response

## COC(=O)[C@@]12OC[C@]34C([C@@H](O)[C@@H]1O)[C@@]1(C)CC(=O)C(OC(=O)C[C@H](C)N)=C(C)[C@@H]1C[C@H]3OC(=O)[C@H](OC(=O)C=C(C)C)[C@@H]24 (stereo partly drawn) [Compound 26, methyl (1R,2S,3S,3aS,3a1R,4R,6aR,7aR,11aS)-9-(((S)-3-aminobutanoyl)oxy)-1,2-dihydroxy-8,11a-dimethyl-4-((3-methylbut-2-enoyl)oxy)-5,10-dioxo-1,4,5,6a,7,7a,10,11,11a,11b-decahydro-2H-3,3a1-(epoxymethano)dibenzo[de,g]chromene-3(3aH)-carboxylate]
other
  Stability in simulated gastric fluid (% at 4 h): 97%
[12]
  percentage of brusatol converted from 26, human plasma: 47%
[13]
  Stability in simulated intestinal fluid (% at 4 h): 76%
NOD/SCID mice; [16]
  mice survived (of four): four
  toxicity in vivo (in words): did not show any obvious signs of toxicity
NOD/SCID mice; [17]
  toxicity in vivo (in words): did not show any obvious signs of toxicity
[7]
  parent detected after incubation in mouse liver microsomes (area %): 87%
[14]
  percentage of brusatol converted from 26, rat plasma: 60%

## COC(=O)[C@@]12OC[C@]34C([C@@H](O)[C@@H]1O)[C@@]1(C)CC(=O)C(OCC(=O)NCCN)=C(C)[C@@H]1C[C@H]3OC(=O)[C@H](OC(=O)C=C(C)C)[C@@H]24 (stereo partly drawn) [Compound 40, methyl (1R,2S,3S,3aS,3a1R,4R,6aR,7aR,11aS)-9-(2-((2-aminoethyl)amino)-2-oxoethoxy)-1,2-dihydroxy-8,11a-dimethyl-4-((3-methylbut-2-enoyl)oxy)-5,10-dioxo-1,4,5,6a,7,7a,10,11,11a,11b-decahydro-2H-3,3a1-(epoxymethano)dibenzo[de,g]chromene-3(3aH)-carboxylate]
Raji cells [3]
  activity on viability of Raji cells (in words): moderate activity
[15]
  activity on five additional cell lines (in words): moderate to good activities
